{"source": "patent US5116815A", "about": "“PF 1022 substance, method of treating helminthic parasitic infection and anthelmintic composition” (Meiji Seika Kaisha Ltd., priority 1989, dated 1992)", "type_in_all_cases": "in vivo", "key": {"[1]": {"test_system": "whipworms (Trichuris suis)", "test": "Anthelmintic activity against swine whipworms", "conditions": "oral in feed; for Number of remaining worms: autopsy one week; for EPG Before administration: baseline; for EPG Upon autopsy: one week", "procedure": "The PF 1022 substance was evaluated for its anthelmintic effect on swine whipworms by orally administering it to swine found to be infected with whipworms (Trichuris suis) by scatoscopy.\nThe PF 1022 substance was administered either once at 1 mg/kg, 5 mg/kg or 10 mg/kg, or at a daily dose of 2.5 mg/kg or 5 mg/kg once daily for 2 consecutive days by admixing an amount of the substance as such equal to each dose with a small portion of the ordinary feed. After administration, the number of whipworm eggs in the feces of each animal was determined daily in terms of EPG. In three animals, the worms eliminated were counted as well. One week after initiation of administration, all the animals were sacrificed and autopsied and the worms remaining in the intestinal tract were counted."}, "[2]": {"test_system": "large intestinal roundworms (Ascaris suum)", "test": "Anthelmintic activity against swine large intestinal roundworms", "conditions": "oral in feed; for Number of remaining worms: autopsy one week; for EPG Before administration: baseline; for EPG Upon autopsy: one week", "procedure": "The anthelmintic effect of the PF 1022 substance in swine was evaluated by orally administering the substance to swine found to be infected with large intestinal roundworms (Ascaris suum) by scatoscopy.\nThe PF 1022 substance was administered either once at 5 mg/kg or 10 mg/kg, or at a daily dose of 1.25 mg/kg, 2.5 mg/kg or 5 mg/kg once daily for consecutive 2 days by admixing an amount of the substance as such equal to each dose with a small portion of the ordinary feed. After administration, the worms eliminated were counted and the feces examined for the number of roundworm eggs per gram of feces (EPG) daily. One week after commencement of administration, the animals were sacrificed and autopsied for counting the worms remaining in the intestinal tract."}, "[3]": {"test_system": "feline roundworms (Toxocara cati)", "test": "Anthelmintic activity against cat large intestinal roundworms", "conditions": "cats", "procedure": "The PF 1022 substance was evaluated for its anthelmintic effect on feline roundworms (Toxocara cati) by orally administering the substance once to 12 cats found to be infected with the roundworms by scatoscopy.\nThe infected cats were used in three groups of 4 animals and given 0.2 mg/kg, 1 mg/kg and 5 mg/kg of the substance, respectively, admixed as such with a small portion of ordinary feed. The observation items were the number of roundworms eliminated during the 7 day observation period following administration and the number of remaining roundworms as found upon autopsy performed 7 days after administration."}, "[4]": {"conditions": "2 administrations, 2.5 mg/kg/administration"}, "[5]": {"conditions": "2 administrations, 5 mg/kg/administration"}, "[6]": {"conditions": "2 administrations, 1.25 mg/kg/administration, 1.25 mg/kg"}}, "note": "Several values for one entry are separate records, joined by “and”; a condition that tells them apart may be missing. Equal entries are not always repeated."}
{"smiles": "CC(C)C[C@H]1C(=O)O[C@H](Cc2ccccc2)C(=O)N(C)[C@@H](CC(C)C)C(=O)O[C@H](C)C(=O)N(C)[C@@H](CC(C)C)C(=O)O[C@H](Cc2ccccc2)C(=O)N(C)[C@@H](CC(C)C)C(=O)O[C@H](C)C(=O)N1C", "note": "[PF 1022 substance]", "values": [{"measurement": "% Elimination", "setting": "[1]; 1 administration, 1 mg/kg", "result": 4.0, "unit": "%"}, {"measurement": "Number of worms eliminated", "setting": "[1]; 1 administration, 1 mg/kg", "result": 14}, {"measurement": "Number of remaining worms", "setting": "[1]; 1 administration, 1 mg/kg", "result": 334}, {"measurement": "EPG Before administration", "setting": "[1]; 1 administration, 1 mg/kg", "result": 5500}, {"measurement": "EPG Upon autopsy", "setting": "[1]; 1 administration, 1 mg/kg", "result": 1200}, {"measurement": "% Elimination", "setting": "[1]; 1 administration, 10 mg/kg", "result": 100, "unit": "%"}, {"measurement": "Number of remaining worms", "setting": "[1]; 1 administration, 10 mg/kg", "result": 0}, {"measurement": "EPG Before administration", "setting": "[1]; 1 administration, 10 mg/kg", "result": 1800}, {"measurement": "EPG Upon autopsy", "setting": "[1]; 1 administration, 10 mg/kg", "result": 0}, {"measurement": "% Elimination", "setting": "[1]; [4]", "result": 100, "unit": "%"}, {"measurement": "EPG Upon autopsy", "setting": "[1]; [4]", "result": 0}, {"measurement": "% Elimination", "setting": "[1]; [5]", "result": 100, "unit": "%"}, {"measurement": "Number of remaining worms", "setting": "[1]; [5]", "result": 0}, {"measurement": "EPG Before administration", "setting": "[1]; [5]", "result": 100}, {"measurement": "EPG Upon autopsy", "setting": "[1]; [5]", "result": 0}, {"measurement": "Number of worms eliminated", "setting": "[2]; 1 administration, 5 mg/kg", "result": 12}, {"measurement": "Number of remaining worms", "setting": "[2]; 1 administration, 5 mg/kg", "result": 13}, {"measurement": "EPG Before administration", "setting": "[2]; 1 administration, 5 mg/kg", "result": 99000}, {"measurement": "EPG Upon autopsy", "setting": "[2]; 1 administration, 5 mg/kg", "result": 8000}, {"measurement": "Number of worms eliminated", "setting": "[2]; 1 administration, 10 mg/kg", "result": 7}, {"measurement": "Number of remaining worms", "setting": "[2]; 1 administration, 10 mg/kg", "result": 5}, {"measurement": "EPG Before administration", "setting": "[2]; 1 administration, 10 mg/kg", "result": 2100}, {"measurement": "EPG Upon autopsy", "setting": "[2]; 1 administration, 10 mg/kg", "result": 200}, {"measurement": "Number of worms eliminated", "setting": "[2]; 2 administrations, 1.25 mg/kg/administration", "result": 2}, {"measurement": "% Elimination", "setting": "[2]; [6]", "result": "18.2% and 33.3%"}, {"measurement": "EPG Before administration", "setting": "[2]; [6]", "result": "2300 and 1800"}, {"measurement": "Number of remaining worms", "setting": "[2]; [4]", "result": 1}, {"measurement": "EPG Before administration", "setting": "[2]; 2 administrations, 2.5 mg/kg/administration, 2.5 mg/kg", "result": "3300 and 3800"}, {"measurement": "EPG Upon autopsy", "setting": "[2]; [4]", "result": 0}, {"measurement": "% Elimination", "setting": "[2]; [5]", "result": 100, "unit": "%"}, {"measurement": "Number of worms eliminated", "setting": "[2]; [5]", "result": 13}, {"measurement": "Number of remaining worms", "setting": "[2]; [5]", "result": 0}, {"measurement": "EPG Before administration", "setting": "[2]; [5]", "result": 2700}, {"measurement": "EPG Upon autopsy", "setting": "[2]; [5]", "result": 0}, {"measurement": "% Elimination", "setting": "[3]; single oral dose 0.2 mg/kg, 0.2 mg/kg", "result": "100% and 50.0%"}, {"measurement": "% Elimination", "setting": "[3]; single oral dose 1 mg/kg, 1 mg/kg", "result": "100% and 80.0%"}, {"measurement": "% Elimination", "setting": "[3]; single oral dose 5 mg/kg", "result": 100, "unit": "%"}, {"measurement": "Number of remaining worms", "setting": "[3]; single oral dose 5 mg/kg, autopsy 7 days", "result": 0}]}
